We go through two molecules from patent publication US20060110787A1, “Use of fluorine-18-labeled fluoroquinolone antibiotics for diagnosing and monitoring bacterial infection” (The Board Trustees of the University of Arkansas, priority 2004, published 2006).

For the assay, the system named is bacterial infections (bone, wound, respiratory and other). In words: PET scan imaging of human subjects after intravenous injection of the 18F-labeled fluoroquinolone. In kind it is in vivo. Particulars: 700 to 1400 MBq i.v.; PET scan 30 to 60 minutes after injection; patients with various bacterial infections vs healthy subjects. The protocol: [^18F]ciprofloxacin administration to human subjects suspected of having bacterial infection and PET monitoring of the localization of [^18F] in the subjects. Healthy subjects are injected intravenously with 700 to 1400 MBq of [^18F]ciprofloxacin. In order to correct for the attenuation of photons by tissue, a transmission scan with two 400-MBq pin sources or from CT data (if the scan is acquired on a PET/CT scanner) is recorded after obtaining the emission scan. Thirty to sixty minutes after injection of [^18F]ciprofloxacin, data are obtained by PET scan of the regions of concern (such as the whole body or a specific area such as the hip or chest, depending on the clinical need) . Each subject is positioned supine on the imaging bed. The data on healthy subjects establish the appearance of the distribution of [^18F]ciprofloxacin in uninfected patients.
The same protocol is used on patients diagnosed by other criteria with bacterial bone infections, bacterial wound infections, bacterial respiratory infections, and other bacterial infections.
Healthy subjects and subjects confirmed by conventional diagnostic methods to have bacterial infections of various types are injected intravenously with 700 to 1400 MBq of [^18F]fleroxacin. After 30 to 60 minutes, the subjects are subjected to PET scan imaging as described in Example 1.

Consider `O=C(O)c1cn(C2CC2)c2cc(N3CCNCC3)c(F)cc2c1=O` [[^18F]ciprofloxacin], for which the “PET scan results of patients with bacterial infections versus healthy volunteers” value is recorded as “distinguishable from the PET scan results of healthy volunteers”.
The entry for [^18F]fleroxacin is “distinguishable from the PET scan results of healthy volunteers”.
